A word on the IC50: it is the midpoint of a concentration-inhibition curve. Lower therefore signals higher potency.

For one assay, the system named is ACAT. Kind of assay: ACAT enzyme assay; selectivity for DGAT over ACAT. The assay is classed as biochemical. The conditions noted are these: DGAT vs ACAT enzyme assays. Here is the method:
3) The ability of compounds to inhibit ACAT can be measured using a modification of the enzyme assay described in Billheimer (1985) Methods in Enzymology, 111, 286-293. The test assesses the ability of a test compound to inhibit the esterification of cholesterol by measuring the amount of radiolabeled cholesteryl oleate formed from radiolabeled oleoyl CoA. Compound was incubated with 10 μg membrane protein and 267 μM cholesterol. After a 5 minute pre-incubation at 37° C. the reaction was started by adding ^14C oleoyl coenzyme A (50 μM final concentration) and incubated at 37° C. for a further 30 minutes. The reaction was stopped by adding 2-propanol:heptane (12:1). Radioactive cholesteryl ester product was separated into the organic phase by adding heptane and 1M carbonate buffer pH 9.5. ACAT activity was quantified by counting aliquots of the upper heptane layer by liquid scintillography.
The selectivity of a compound to inhibit DGAT over inhibition of ACAT may be defined as the ratio of IC50 values generated in the DGAT and ACAT enzyme assays for a particular compound.

A further assay deals with T1, human DGAT1 (Homo sapiens, UniProt O75907).
T1 construct: made in house; host or cells: Sf9 insect cells, recombinant baculovirus; membrane fraction
T1 sequence (O75907 1-488): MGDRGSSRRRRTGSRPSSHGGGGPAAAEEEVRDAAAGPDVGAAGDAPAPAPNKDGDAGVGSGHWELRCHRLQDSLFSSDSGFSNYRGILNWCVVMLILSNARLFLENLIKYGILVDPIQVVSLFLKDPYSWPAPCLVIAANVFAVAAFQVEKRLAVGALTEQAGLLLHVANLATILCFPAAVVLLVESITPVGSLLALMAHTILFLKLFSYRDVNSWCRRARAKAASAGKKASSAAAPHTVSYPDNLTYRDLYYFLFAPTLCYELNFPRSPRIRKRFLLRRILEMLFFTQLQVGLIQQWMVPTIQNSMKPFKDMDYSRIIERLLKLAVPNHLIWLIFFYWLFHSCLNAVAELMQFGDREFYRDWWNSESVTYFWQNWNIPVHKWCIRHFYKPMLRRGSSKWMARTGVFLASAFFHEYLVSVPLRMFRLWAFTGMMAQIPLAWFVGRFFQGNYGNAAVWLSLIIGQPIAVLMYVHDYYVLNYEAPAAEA
Kind of assay: Human Enzyme Assay (DGAT1 activity, 14C oleoyl coenzyme A, insect cell membranes). The assay is classed as biochemical. The conditions noted are these: human DGAT1 expressed in sf9 insect cell membranes. How it is done:
The in vitro assay to identify DGAT1 inhibitors uses human DGAT1 expressed in insect cell membranes as the enzyme source (Proc. Natl. Acad. Sci. 1998, 95, 13018-13023). Briefly, sf9 cells were infected with recombinant baculovirus containing human DGAT1 coding sequences and harvested after 48 h. Cells were lysed by sonication and membranes isolated by centrifuging at 28000 rpm for 1 h at 4° C. on a 41% sucrose gradient. The membrane fraction at the interphase was collected, washed, and stored in liquid nitrogen.
DGAT1 activity was assayed by a modification of the method described by Coleman (Methods in Enzymology 1992, 209, 98-102). Compound at 1-10 μM was incubated with 0.4 μg membrane protein, 5 mM MgCl2, and 100 μM 1,2 dioleoyl-sn-glycerol in a total assay volume of 200 μl in plastic tubes. The reaction was started by adding ^14C oleoyl coenzyme A (30 μM final concentration) and incubated at room temperature for 30 minutes. The reaction was stopped by adding 1.5 mL 2-propanol:heptane:water (80:20:2). Radioactive triolein product was separated into the organic phase by adding 1 mL heptane and 0.5 mL 0.1 M carbonate buffer pH 9.5. DGAT1 activity was quantified by counting aliquots of the upper heptane layer by liquid scintillography.

As to `O=C(Nc1ccc(O[C@H]2CC[C@H](C(=O)O)CC2)cc1)c1nnc(Nc2ccc(F)cc2)o1` [Example 13, trans-4-{4-[({5-[(4-fluorophenyl)amino]-1,3,4-oxadiazol-2-yl}carbonyl)amino]phenoxy}cyclohexanecarboxylic acid], the “selectivity to inhibit DGAT over inhibition of ACAT (ratio of IC50 values in the DGAT and ACAT enzyme assays)” value in the assay on ACAT stood at 310 fold. On human DGAT1, half-maximal inhibition (IC50) required 0.017 µM.

The record behind these values is US8084478B2, “Substituted 5- phenylamino- 1, 3, 4-oxadiazol-2-ylcarbonylamino-4-phenoxy-cyclohexane carboxylic acid as inhibitors of acetyl coenzyme A diacylglycerol acyltransferase” (AsstraZeneca AB, priority 2006, dated 2011).
